How the values were obtained:
human Gal-3 (hGal-3) = human Gal-3 (hGal-3) (Homo sapiens (Human), UniProt P17931); test: competitive binding assay: biotinylated hGal-3 binding to microplate-adsorbed asialofetuin (ASF); settings: Gal-3 inhibition; binding of biotinylated hGal-3 to ASF; mean values; read-out: IC50
Summary of the method: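 Peroxidase activity developed with ABTS measures the biotinylated hGal-3 remaining on the asialofetuin-coated surface after competition with test compounds. Incubation ran 3 h at 4 °C, followed by 1 h with streptavidin-peroxidase at 80 ng/mL.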

human Gal-1 (hGal-1) = human Gal-1 (hGal-1) (Homo sapiens (Human), UniProt P09382); test: competitive binding assay: biotinylated hGal-1 binding to microplate-adsorbed asialofetuin (ASF); settings: Table 15; read-out: IC50 (Galectin-1 inhibition)
human Gal-1 (hGal-1), sequence (P09382 whole entry): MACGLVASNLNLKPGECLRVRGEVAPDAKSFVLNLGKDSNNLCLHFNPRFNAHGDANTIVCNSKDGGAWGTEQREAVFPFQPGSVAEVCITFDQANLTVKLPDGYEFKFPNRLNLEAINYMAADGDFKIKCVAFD
Protocol: Inhibition data of the epimers R and S of selected Examples are also listed.
Evaluation of Compound Inhibitory Activity (IC50)
The inhibitory activity of compounds is determined in competitive binding assays. This spectrophotometric assay measures the binding of biotinylated human Gal-3 (hGal-3) or human Gal-1 (hGal-1), respectively, to a microplate-adsorbed glycoprotein, asialofetuin (ASF) (Proc Natl Acad Sci USA. 2013 Mar. 26; 110(13):5052-7.).
Briefly, compounds are serially diluted in DMSO (working dilutions). ASF-coated 384 well plates are supplemented with 22.8 μL/well of biotinylated hGal-3 or hGal-1 in assay buffer (i.e. 300-1000 ng/mL biotinylated hGal-3 or hGal-1) to which 1.2 μL of compound working dilutions are added and mixed.
Plates are incubated for 3 hours at 4° C., then washed with cold assay buffer (3×50 uL), incubated for 1 hour with 25 μL/well of a streptavidin-peroxidase solution (diluted in assay buffer to 80 ng/mL) at 4° C., followed by further washing steps with assay buffer (3×50 uL). Finally, 25 μL/well of ABTS substrate is added.
The calculated IC50 values may fluctuate depending on the daily assay performance. Fluctuations of this kind are known to those skilled in the art. IC50 values from several measurements are given as mean values.

human Gal-3 (hGal-3), sequence (P17931 whole entry): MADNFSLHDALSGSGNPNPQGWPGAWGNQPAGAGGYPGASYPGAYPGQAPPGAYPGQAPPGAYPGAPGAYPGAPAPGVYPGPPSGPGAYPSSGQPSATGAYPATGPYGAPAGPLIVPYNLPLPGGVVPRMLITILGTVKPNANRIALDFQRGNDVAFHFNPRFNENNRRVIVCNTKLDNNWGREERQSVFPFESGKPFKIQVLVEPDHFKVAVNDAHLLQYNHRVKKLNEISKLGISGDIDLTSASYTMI

Compound | IC50 (human Gal-3 (hGal-3)) [µM] | IC50 (human Gal-1 (hGal-1)) [µM]
CC(C)(O)C(S[C@@H]1O[C@H](CO)[C@H](O)[C@H](n2cc(-c3cc(F)c(F)c(F)c3)nn2)[C@H]1O)c1ccccc1C(F)(F)F (stereo partly drawn) [Example 2.31.112., (2S,3R,4S,5R,6R)-2-((2-Hydroxy-2-methyl-1-(2-(trifluoromethyl)phenyl)propyl)thio)-6-(hydroxymethyl)-4-(4-(3,4,5-trifluorophenyl)-1H-1,2,3-triazol-1-yl)tetrahydro-2H-pyran-3,5-diol] | 0.25 | 5.23
CC(C)(O)[C@H](S[C@@H]1O[C@H](CO)[C@H](O)[C@H](n2cc(-c3cc(F)c(F)c(F)c3)nn2)[C@H]1O)c1ccccc1C(F)(F)F [Example 2.31.112R., (2S,3R,4S,5R,6R)-2-(((R)-2-Hydroxy-2-methyl-1-(2-(trifluoromethyl)phenyl)propyl)thio)-6-(hydroxymethyl)-4-(4-(3,4,5-trifluorophenyl)-1H-1,2,3-triazol-1-yl)tetrahydro-2H-pyran-3,5-diol] | 0.29 | 2.61
CC(C)(O)[C@@H](S[C@@H]1O[C@H](CO)[C@H](O)[C@H](n2cc(-c3cc(F)c(F)c(F)c3)nn2)[C@H]1O)c1ccccc1C(F)(F)F [Example 2.31.112S., (2S,3R,4S,5R,6R)-2-(((S)-2-Hydroxy-2-methyl-1-(2-(trifluoromethyl)phenyl)propyl)thio)-6-(hydroxymethyl)-4-(4-(3,4,5-trifluorophenyl)-1H-1,2,3-triazol-1-yl)tetrahydro-2H-pyran-3,5-diol] | 7.07 | 26.4
CC(C)(O)[C@H](S[C@@H]1O[C@H](CO)[C@H](O)[C@H](n2cc(-c3cc(F)c(F)c(F)c3)nn2)[C@H]1O)c1cccnc1C(F)(F)F [Example 2.31.118R., (2S,3R,4S,5R,6R)-2-(((R)-2-hydroxy-2-methyl-1-(2-(trifluoromethyl)pyridin-3-yl)propyl)thio)-6-(hydroxymethyl)-4-(4-(3,4,5-trifluorophenyl)-1H-1,2,3-triazol-1-yl)tetrahydro-2H-pyran-3,5-diol] | 0.21 | 0.64
CC(C)(O)[C@@H](S[C@@H]1O[C@H](CO)[C@H](O)[C@H](n2cc(-c3cc(F)c(F)c(F)c3)nn2)[C@H]1O)c1cccnc1C(F)(F)F [Example 2.31.118S., (2S,3R,4S,5R,6R)-2-(((S)-2-Hydroxy-2-methyl-1-(2-(trifluoromethyl)pyridin-3-yl)propyl)thio)-6-(hydroxymethyl)-4-(4-(3,4,5-trifluorophenyl)-1H-1,2,3-triazol-1-yl)tetrahydro-2H-pyran-3,5-diol] | 6.21 | 8.2
Cc1nc(C)c(C(S[C@@H]2O[C@H](CO)[C@H](O)[C@H](n3cc(-c4cc(F)c(F)c(F)c4)nn3)[C@H]2O)C(C)(C)O)nc1C (stereo partly drawn) [Example 2.31.119., (2S,3R,4S,5R,6R)-2-((2-Hydroxy-2-methyl-1-(3,5,6-trimethylpyrazin-2-yl)propyl)thio)-6-(hydroxymethyl)-4-(4-(3,4,5-trifluorophenyl)-1H-1,2,3-triazol-1-yl)tetrahydro-2H-pyran-3,5-diol] | 0.23 | 1.75
Cc1nc(C)c([C@@H](S[C@@H]2O[C@H](CO)[C@H](O)[C@H](n3cc(-c4cc(F)c(F)c(F)c4)nn3)[C@H]2O)C(C)(C)O)nc1C [Example 2.31.119R., (2S,3R,4S,5R,6R)-2-(((R)-2-Hydroxy-2-methyl-1-(3,5,6-trimethylpyrazin-2-yl)propyl)thio)-6-(hydroxymethyl)-4-(4-(3,4,5-trifluorophenyl)-1H-1,2,3-triazol-1-yl)tetrahydro-2H-pyran-3,5-diol] | 0.27 | 1.15
Cc1nc(C)c([C@H](S[C@@H]2O[C@H](CO)[C@H](O)[C@H](n3cc(-c4cc(F)c(F)c(F)c4)nn3)[C@H]2O)C(C)(C)O)nc1C [Example 2.31.119S., (2S,3R,4S,5R,6R)-2-(((S)-2-Hydroxy-2-methyl-1-(3,5,6-trimethylpyrazin-2-yl)propyl)thio)-6-(hydroxymethyl)-4-(4-(3,4,5-trifluorophenyl)-1H-1,2,3-triazol-1-yl)tetrahydro-2H-pyran-3,5-diol] | 2.63 | 18.4

Now from value to molecule:

IC50 (human Gal-3 (hGal-3)) [µM] | IC50 (human Gal-1 (hGal-1)) [µM] | Compound
0.38 | 3.19 | CC(C)(O)[C@H](S[C@@H]1O[C@H](CO)[C@H](O)[C@H](n2cc(-c3cc(F)c(F)c(F)c3)nn2)[C@H]1O)c1ccccc1Cl [Example 2.31.111R., (2S,3R,4S,5R,6R)-2-(((R)-1-(2-Chlorophenyl)-2-hydroxy-2-methylpropyl)thio)-6-(hydroxymethyl)-4-(4-(3,4,5-trifluorophenyl)-1H-1,2,3-triazol-1-yl)tetrahydro-2H-pyran-3,5-diol]
4.3 | 30.9 | CC(C)(O)[C@@H](S[C@@H]1O[C@H](CO)[C@H](O)[C@H](n2cc(-c3cc(F)c(F)c(F)c3)nn2)[C@H]1O)c1ccccc1Cl [Example 2.31.111S., (2S,3R,4S,5R,6R)-2-(((S)-1-(2-Chlorophenyl)-2-hydroxy-2-methylpropyl)thio)-6-(hydroxymethyl)-4-(4-(3,4,5-trifluorophenyl)-1H-1,2,3-triazol-1-yl)tetrahydro-2H-pyran-3,5-diol]
0.46 | 3.75 | CC(C)(O)C(S[C@@H]1O[C@H](CO)[C@H](O)[C@H](n2cc(-c3cc(F)c(F)c(F)c3)nn2)[C@H]1O)c1cccc(Cl)c1Cl (stereo partly drawn) [Example 2.31.113., (2S,3R,4S,5R,6R)-2-((1-(2,3-Dichlorophenyl)-2-hydroxy-2-methylpropyl)thio)-6-(hydroxymethyl)-4-(4-(3,4,5-trifluorophenyl)-1H-1,2,3-triazol-1-yl)tetrahydro-2H-pyran-3,5-diol]
0.13 | 2.27 | Cc1c(F)cccc1C(S[C@@H]1O[C@H](CO)[C@H](O)[C@H](n2cc(-c3cc(F)c(F)c(F)c3)nn2)[C@H]1O)C(C)(C)O (stereo partly drawn) [Example 2.31.114., (2S,3R,4S,5R,6R)-2-((1-(3-Fluoro-2-methylphenyl)-2-hydroxy-2-methylpropyl)thio)-6-(hydroxymethyl)-4-(4-(3,4,5-trifluorophenyl)-1H-1,2,3-triazol-1-yl)tetrahydro-2H-pyran-3,5-diol]
5.4 | 40.9 | Cc1c(F)cccc1[C@H](S[C@@H]1O[C@H](CO)[C@H](O)[C@H](n2cc(-c3cc(F)c(F)c(F)c3)nn2)[C@H]1O)C(C)(C)O [Example 2.31.114S., (2S,3R,4S,5R,6R)-2-(((S)-1-(3-Fluoro-2-methylphenyl)-2-hydroxy-2-methylpropyl)thio)-6-(hydroxymethyl)-4-(4-(3,4,5-trifluorophenyl)-1H-1,2,3-triazol-1-yl)tetrahydro-2H-pyran-3,5-diol]
0.18 | 1.39 | CC(C)(O)C(S[C@@H]1O[C@H](CO)[C@H](O)[C@H](n2cc(-c3cc(F)c(F)c(F)c3)nn2)[C@H]1O)c1cccc2ccccc12 (stereo partly drawn) [Example 2.31.115., (2S,3R,4S,5R,6R)-2-((2-Hydroxy-2-methyl-1-(naphthalen-1-yl)propyl)thio)-6-(hydroxymethyl)-4-(4-(3,4,5-trifluorophenyl)-1H-1,2,3-triazol-1-yl)tetrahydro-2H-pyran-3,5-diol]
0.17 | 0.58 | CC(C)(O)[C@H](S[C@@H]1O[C@H](CO)[C@H](O)[C@H](n2cc(-c3cc(F)c(F)c(F)c3)nn2)[C@H]1O)c1cccc2ccccc12 [Example 2.31.115R., (2S,3R,4S,5R,6R)-2-(((R)-2-Hydroxy-2-methyl-1-(naphthalen-1-yl)propyl)thio)-6-(hydroxymethyl)-4-(4-(3,4,5-trifluorophenyl)-1H-1,2,3-triazol-1-yl)tetrahydro-2H-pyran-3,5-diol]
10.3 | 47.9 | CC(C)(O)[C@@H](S[C@@H]1O[C@H](CO)[C@H](O)[C@H](n2cc(-c3cc(F)c(F)c(F)c3)nn2)[C@H]1O)c1cccc2ccccc12 [Example 2.31.115S., (2S,3R,4S,5R,6R)-2-(((S)-2-Hydroxy-2-methyl-1-(naphthalen-1-yl)propyl)thio)-6-(hydroxymethyl)-4-(4-(3,4,5-trifluorophenyl)-1H-1,2,3-triazol-1-yl)tetrahydro-2H-pyran-3,5-diol]
0.3 | 3.78 | Cc1ncccc1C(S[C@@H]1O[C@H](CO)[C@H](O)[C@H](n2cc(-c3cc(F)c(F)c(F)c3)nn2)[C@H]1O)C(C)(C)O (stereo partly drawn) [Example 2.31.116., (2S,3R,4S,5R,6R)-2-((2-Hydroxy-2-methyl-1-(2-methylpyridin-3-yl)propyl)thio)-6-(hydroxymethyl)-4-(4-(3,4,5-trifluorophenyl)-1H-1,2,3-triazol-1-yl)tetrahydro-2H-pyran-3,5-diol]
0.53 | 4.95 | Cc1ccncc1C(S[C@@H]1O[C@H](CO)[C@H](O)[C@H](n2cc(-c3cc(F)c(F)c(F)c3)nn2)[C@H]1O)C(C)(C)O (stereo partly drawn) [Example 2.31.117., (2S,3R,4S,5R,6R)-2-((2-Hydroxy-2-methyl-1-(4-methylpyridin-3-yl)propyl)thio)-6-(hydroxymethyl)-4-(4-(3,4,5-trifluorophenyl)-1H-1,2,3-triazol-1-yl)tetrahydro-2H-pyran-3,5-diol]
